US10689708B2, “Methods for treating diffuse large B-cell lymphoma and the use of biomarkers as a predictor of responsiveness to drugs” (Celgene Corporation, priority 2015, dated 2020)

Test system: relapsed or refractory DLBCL
Assay: Compound A treatment of relapsed or refractory DLBCL patients stratified by 26-gene (Table 2) classifier: PFS and tumor measurement
Format: in vivo, human
Details: for PFS: Compound A treatment (FIG. 3)
Text: In another exemplary study, a computational decision function was applied to gene expression values for the 26 genes in Table 2 to predict the positive/negative outcome sub-group membership of relapsed or refractory DLBCL patients for responsiveness to Compound A treatment alone or in combination with other agents.
The response to Compound A treatment of each of a group of relapsed or refractory DLBCL patients was predicated based on the gene expression levels of 26 genes of Table 2, and the group of patients were classified into two populations—the population predicted to be responsive to Compound A treatment (26 genes positive population) and the other population predicted to be not responsive to Compound A (26 genes negative population).
The expression levels of the 26 genes were measured as follows: DLBCL lymph-node biopsies were formalin fixed and paraffin embedded. Nucleic acids obtained from the tissues were extracted using the Roche High Pure FPPET kit, according to the manufacturer's instructions. The RNA was quantitated using spectrophotometry (NanoDrop, Thermo Science, DE). Gene expression on approximately 200 nanograms of RNA was used to determine gene expression levels by means of NanoString technology (NanoString Technologies, WA). The total RNA was hybridized to the custom codesets at 65° C. overnight. The reaction was processed on the nCounter™ Prep Station and gene expression data was then acquired on the nCounter™ Digital Analyzer.
Then, the patients' response to Compound A treatment were measured by progression free survival (PFS). The results are shown in FIG. 3, and as shown, that there is a significant benefit, as measured by PFS, of 26 gene positive population (upper line) as compared to 26 genes negative population (lower line) (PFS 17.43 weeks in 26 genes positive population versus PFS 6.57 weeks in 26 genes negative population).
Additionally, the response to Compound A of DLBCL patients with historically poor prognosis was measured by Nanostring. […] This is comparison to patients in the 26 genes positive population (blue line), in which 4 patients obtained a durable clinical response of greater than 50% decrease in tumor size (see FIG. 8). Similar results were observed when examining patients with primary refractory DLBCL that had also had at least 3 or more prior lines of therapy (see FIG. 9).

Cc1nc2cccc(N)c2c(=O)n1C1CCC(=O)NC1=O (centres unmarked) [Compound A, 3-(5-amino-2-methyl-4-oxo-4H-quinazolin-3-yl)-piperidine-2,6-dione]
PFS at 6 months (26 genes negative population): 5.4% | PFS (26 genes negative population): 6.57 weeks | PFS at 6 months (26 genes positive population): 44.6% | PFS (26 genes positive population): 17.43 weeks | median PFS (ABC subtype of DLBCL (FIG. 7)): 12.1 weeks | median PFS (GCB subtype of DLBCL (FIG. 7)): 15.6 weeks | tumor measurement, clinical response (majority of patients in the 26 genes negative population (FIG. 5)): rapid progression or short responses | tumor measurement, clinical response (majority of patients in the 26 genes positive population (FIG. 4)): clinical response of greater than 50% decrease in tumor size and/or have stable disease | tumor measurement, clinical course (primary refractory disease (less than complete response to R-CHOP), 26 genes negative population (FIG. 8)): experienced rapid progression | patients who obtained a durable clinical response of greater than 50% decrease in tumor size (primary refractory disease (less than complete response to R-CHOP), 26 genes positive population (FIG. 8)): 4 patients | median PFS (unclassified subtype of DLBCL (FIG. 7)): 7 weeks
